In patent publication US6821976B2, “S-6-hydroxy-buspirone” (Bristol-Myers Squibb Company, priority 2001, dated 2004):

Experiments:
[1] = tested on: Harlan Sprague-Dawley rat pups; experiment: Rat pup isolation-induced ultrasonic vocalization test; type: in vivo; conditions: for anxiolytic activity (ultrasonic vocalizations emitted by rat pups): dose levels of 0.3 and 1 mg/kg s.c.
Experimental: Harlan Sprague-Dawley rat pups (male and female) were housed in polycarbonate cages with the dam until 9-11 days old. Thirty minutes before testing, pups were removed from the dam, placed into a new cage with a small amount of home bedding and brought into the lab and placed under a light to maintain body temperature at 37° C. Pups were then weighed, sexed, marked and returned to the litter group until behavioral assessment. Testing took place in a Plexiglas recording chamber that contained a metal plate maintained at (18-20° C.) with a 5×5 cm grid drawn on the plate. A microphone was suspended 10 cm above the plate to record ultrasonic vocalizations. Ultrasonic calls were recorded using the Noldus UltraVox system providing online analysis of the frequency and duration of calls. The number of grid cells entered by the pup was also collected by visual scoring. […] Immediately following the collection of the baseline measures, pups were injected with vehicle or drug subcutaneously at the nape of the neck and returned to its littermates. Thirty minutes later, pups were retested on each of the dependent measures (vocalization and grid cell crossings) to assess drug effects. Unless otherwise specified, each pup was used only once. Baseline differences and percent change from baseline for the frequency of ultrasonic vocalizations and grid cell crossings were analyzed using a one-way ANOVA. Bonferroni/Dunn post hoc comparisons were performed to assess the acute drug effects with vehicle control. Log-probit analysis was used to estimate the dose (milligrams per kilogram) of each agonist predicted to inhibit isolation-induced ultrasonic vocalizations by 50% (ID50). All comparison were made with an experimental type I error rate (α) set at 0.05.
Doses for each drug were administered in an irregular order across several litters. S-6-hydroxy-buspirone and racemic 6-hydroxy-buspirone were dissolved in physiological saline (0.9% NaCl; vehicle). All injections were administered subcutaneously in a volume of 10 ml/kg. Doses of the drug refer to weight of the salt.

human 5-HT1A receptor = target: T1, human 5-HT1A receptor (Homo sapiens, UniProt P08908); experiment: 5-HT1A receptor binding assay; conditions: preclinical studies
T1 construct: expressed in transfected cells; host or cells: HEK293 cells
T1 sequence (P08908 1-422): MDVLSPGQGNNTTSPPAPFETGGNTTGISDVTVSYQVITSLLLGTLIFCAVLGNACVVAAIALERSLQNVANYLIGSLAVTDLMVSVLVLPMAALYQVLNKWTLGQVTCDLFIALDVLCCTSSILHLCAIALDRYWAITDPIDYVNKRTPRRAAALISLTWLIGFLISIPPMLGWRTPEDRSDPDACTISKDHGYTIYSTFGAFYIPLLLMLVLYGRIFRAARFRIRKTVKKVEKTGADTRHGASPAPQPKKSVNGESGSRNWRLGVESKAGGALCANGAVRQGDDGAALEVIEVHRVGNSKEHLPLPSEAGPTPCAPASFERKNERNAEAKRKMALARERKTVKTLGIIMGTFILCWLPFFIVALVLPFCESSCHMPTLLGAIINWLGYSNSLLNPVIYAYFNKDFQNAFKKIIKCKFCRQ
Experimental: Membranes are prepared for binding using the human 5-HT1A receptor expressed in HEK293 cells. Cells are collected and ruptured using a dounce homogenizer. The cells are spun at 18000×g for 10 minutes and the pellet is resuspended in assay buffer, frozen in liquid nitrogen and kept at −80° C. until the day of the assay.
A total of 30 ug protein is used per well. The assay is carried out in 96-deep-well plates. The assay buffer is 50 mM HEPES containing 2.5 mM MgCl2 and 2 mM EGTA. The membrane preparation is incubated at 25° C. for 60 minutes with 0.1 nM to 1000 nM test compound and 1 nM 3H-8-OH-DPAT. […] serotonin serves as blocking agent to determine non-specific binding. The reaction is terminated by the addition of 1 ml of ice cold 50 mM HEPES buffer and rapid filtration through a Brandel Cell Harvester using Whatman GF/B filters. The filter pads are counted in an LKB Trilux liquid scintillation counter. IC50 values are determined using non-linear regression by Excel-fit.

[2] = Clinical studies in volunteers orally dosed with buspirone, blood plasma levels; type: in vivo, human; conditions: compared to buspirone blood plasma levels
[3] = Pharmacokinetic studies with 6-hydroxy-buspirone, clearance from the bloodstream; conditions: in vivo

Row | clearance from the bloodstream compared with the R-enantiomer [3] | reduced clearance of S- over R- [3] | SMILES | anxiolytic activity (ultrasonic vocalizations emitted by rat pups) [1] | anxiolytic response in the rat pup ultrasonic vocalization test ([1]; functional testing) | animal movement, measured by crossing grid boundary lines ([1]; rat pups, compared to the animals dosed with the single enantiomer) | affinity for the human 5-HT1A receptor (human 5-HT1A receptor) | time course of blood plasma levels [2]
1 | – | – | O=C1CC2(CCCC2)C(O)C(=O)N1CCCCN1CCN(c2ncccn2)CC1 (racemic) [6-hydroxy-buspirone] | Statistically significant anxiolytic activity | dose-dependent anxiolytic response | appeared to be reduced | strong affinity | sustained
2 | cleared more slowly | about three-fold | O=C1CC2(CCCC2)[C@H](O)C(=O)N1CCCCN1CCN(c2ncccn2)CC1 [S-6-hydroxy-buspirone] | Statistically significant anxiolytic activity | – | – | – | –
3 | – | – | O=C1CC2(CCCC2)CC(=O)N1CCCCN1CCN(c2ncccn2)CC1 [buspirone] | – | – | – | strong affinity | –
